1 compound from PubChem BioAssay AID652102 (NMMLSC, 2013) can be followed below.

As usually defined, the IC50 is the concentration that gives 50% inhibition.

Each structure is given as a SMILES string.

In this experiment the target is Botulinum neurotoxin type A (Clostridium botulinum (strain Hall / ATCC 3502 / NCTC 13319 / Type A)) (UniProt P0DPI1). Description: BoNT/A light chain protease inhibitors, confirmation, biochemical, FRET, full-length substrates, powder set 1 (AID 652102). The following applies: BoNT/A LC protease, FRET full-length substrate cleavage.
Chain of Botulinum neurotoxin type A (Clostridium botulinum (strain Hall / ATCC 3502 / NCTC 13319 / Type A)) (P0DPI1 whole entry, looked up): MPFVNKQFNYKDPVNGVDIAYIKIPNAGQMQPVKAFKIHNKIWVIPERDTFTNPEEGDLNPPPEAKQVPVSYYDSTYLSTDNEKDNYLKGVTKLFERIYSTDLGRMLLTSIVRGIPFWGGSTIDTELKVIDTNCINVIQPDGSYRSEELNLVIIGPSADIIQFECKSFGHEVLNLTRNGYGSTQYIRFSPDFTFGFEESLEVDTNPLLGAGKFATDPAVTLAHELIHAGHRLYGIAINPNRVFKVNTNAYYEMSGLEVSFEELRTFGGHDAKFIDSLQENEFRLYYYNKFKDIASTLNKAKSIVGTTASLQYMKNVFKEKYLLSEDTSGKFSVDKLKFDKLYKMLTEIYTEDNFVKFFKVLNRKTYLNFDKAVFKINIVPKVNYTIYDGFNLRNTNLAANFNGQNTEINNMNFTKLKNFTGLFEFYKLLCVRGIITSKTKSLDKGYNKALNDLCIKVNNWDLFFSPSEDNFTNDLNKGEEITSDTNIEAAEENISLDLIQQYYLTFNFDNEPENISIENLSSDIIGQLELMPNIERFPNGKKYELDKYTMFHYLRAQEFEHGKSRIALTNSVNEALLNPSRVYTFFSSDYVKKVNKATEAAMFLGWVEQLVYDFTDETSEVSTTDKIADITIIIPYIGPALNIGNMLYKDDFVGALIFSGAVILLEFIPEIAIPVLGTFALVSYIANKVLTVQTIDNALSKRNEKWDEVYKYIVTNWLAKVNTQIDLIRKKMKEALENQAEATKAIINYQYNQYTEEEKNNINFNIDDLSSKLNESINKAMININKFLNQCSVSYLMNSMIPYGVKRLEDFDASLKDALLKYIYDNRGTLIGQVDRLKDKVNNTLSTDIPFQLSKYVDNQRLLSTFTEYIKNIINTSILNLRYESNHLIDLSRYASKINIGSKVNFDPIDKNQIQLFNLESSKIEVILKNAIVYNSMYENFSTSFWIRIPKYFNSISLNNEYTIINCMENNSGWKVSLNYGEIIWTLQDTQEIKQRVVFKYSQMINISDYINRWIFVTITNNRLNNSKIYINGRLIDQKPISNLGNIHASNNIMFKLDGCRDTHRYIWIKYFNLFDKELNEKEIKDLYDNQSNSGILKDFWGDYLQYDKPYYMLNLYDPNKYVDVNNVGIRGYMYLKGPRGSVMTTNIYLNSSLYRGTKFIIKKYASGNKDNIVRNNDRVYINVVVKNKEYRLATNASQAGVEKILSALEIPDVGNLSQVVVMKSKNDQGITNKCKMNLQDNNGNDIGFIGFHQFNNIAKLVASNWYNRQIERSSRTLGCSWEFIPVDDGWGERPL

As to `c1ccc(-c2cn3nc(-c4ccccc4)c(-c4ccccc4)nc3n2)cc1`, the 50% inhibitory concentration (IC50) was 0.6 µM.
